test system: HCV replicon; assay: HCV replicon replication assay (NPT ELISA) in Huh-7 replicon-containing cells; type: cell-based; settings: Hepatitis C virus, 72 h; HCV replicon in Huh-7 cells, three days incubation; read-out: EC50
How it was run: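 Replication was scored by capture ELISA of neomycin phosphotransferase, whose level tracks replicon replication, after graded compound treatment. The cells were Huh-7 harbouring an HCV-IRES/neo/EMCV-IRES/NS3–NS5B/3′-NTR replicon, plated at 6000-7500 cells/well and dosed 24 h later at 60-70% confluence; interferon alpha was the positive control.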

| Compound | EC50 [nM] |
| --- | --- |
| C=C[C@@H]1C[C@]1(NC(=O)[C@@H]1C[C@@H](Oc2cc(-c3ccccc3)nc3cc(OC)ccc23)CN1C(=O)[C@@H](CC(=O)N1CCCC(F)(F)C1)C(C)(C)C)C(=O)NS(=O)(=O)C1CC1 [Compound 108, (2S,4R)-1-((S)-2-tert-butyl-4-(3,3-difluoropiperidin-1-yl)-4-oxobutanoyl)-N-((1R,2S)-1-(cyclo-propylsulfonyl-carbamoyl)-2-vinylcyclopropyl)-4-(7-methoxy-2-phenylquinolin-4-yloxy)pyrrolidine-2-carboxamide] | < 1000 |
| C=C[C@@H]1C[C@]1(NC(=O)[C@@H]1C[C@@H](Oc2cc(-c3ccccn3)nc3cc(OC)ccc23)CN1C(=O)[C@@H](CC(=O)N1CCC(F)(F)C1)C(C)(C)C)C(=O)NS(=O)(=O)C1CC1 [Compound 214, (2S,4R)-1-((S)-2-tert-butyl-4-(3,3-difluoropyrrolidin-1-yl)-4-oxobutanoyl)-N-((1R)-1-(cyclopropyl-sulfonylcarbamoyl)-2-vinylcyclopropyl)-4-(7-methoxy-2-(pyridin-2-yl)quinolin-4-yloxy)pyrrolidine-2-carboxamide] | < 1000 |
| C=CC1CC1(NC(=O)[C@@H]1C[C@@H](Oc2cc(-c3ccccc3)nc3cc(OC)ccc23)CN1C(=O)[C@@H](CC(=O)N1CCc2ccccc2C1)C(C)(C)C)C(=O)NS(=O)(=O)C1CC1 (stereo partly drawn) [Compound 40, (2S,4R)-1-((S)-2-tert-butyl-4-(3,4-dihydro-isoquinolin-2(1H)-yl)-4-oxobutanoyl)-N-(1-(cyclopropyl-sulfonyl-carbamoyl)-2-vinylcyclopropyl)-4-(7-methoxy-2-phenylquinolin-4-yloxy)pyrrolidine-2-carboxamide] | < 1000 |
| C=C[C@@H]1C[C@]1(NC(=O)[C@@H]1C[C@@H](Oc2nc(-c3ccccc3)cc3cc(OC)ccc23)CN1C(=O)[C@@H](CC(=O)N1CCOCC1)C(C)(C)C)C(=O)NS(=O)(=O)C1CC1 [Compound 71, (2S,4R)-1-((S)-2-tert-butyl-4-morpholino-4-oxobutanoyl)-N-((1R,2S)-1-(cyclopropylsulfonyl-carbamoyl)-2-vinylcyclopropyl)-4-(6-methoxy-3-phenylisoquinolin-1-yloxy)pyrrolidine-2-carboxamide] | < 1000 |
| C=C[C@@H]1C[C@]1(NC(=O)[C@@H]1C[C@@H](Oc2cc(-c3ccccc3)nc3cc(OC)ccc23)CN1C(=O)[C@@H](CC(=O)N1CCCCC1)CC1CC1)C(=O)NS(=O)(=O)C1CC1 [Compound 124, (2S,4R)-1-((R)-2-(cyclopropylmethyl)-4-oxo-4-(piperidin-1-yl)butanoyl)-N-((1R,2S)-1-(cyclopropylsulfonyl-carbamoyl)-2-vinylcyclopropyl)-4-(7-methoxy-2-phenylquinolin-4-yloxy)pyrrolidine-2-carboxamide] | < 1000 |
| C=CC1CC1(NC(=O)[C@@H]1C[C@@H](Oc2cc(-c3ccccc3)nc3cc(OC)ccc23)CN1C(=O)[C@@H](CC(=O)N1CCCC(C(N)=O)C1)C(C)(C)C)C(=O)NS(=O)(=O)C1CC1 (stereo partly drawn) [Compound 45, 1-((3S)-3-((2S,4R)-2-(1-(cyclopropyl-sulfonylcarbamoyl)-2-vinylcyclopropyl-carbamoyl)-4-(7-methoxy-2-phenylquinolin-4-yloxy)pyrrolidine-1-carbonyl)-4,4-dimethylpentano-yl)piperidine-3-carboxamide] | 1000 to 10000 |
| C=C[C@@H]1C[C@]1(NC(=O)[C@@H]1C[C@@H](Oc2cc(-c3ccccc3)nc3cc(OC)ccc23)CN1C(=O)[C@@H](CC(=O)N1CCC(C(=O)NC)CC1)C(C)(C)C)C(=O)NS(=O)(=O)C1CC1 [Compound 78] | < 1000 |
| CC[C@@H]1C[C@]1(NC(=O)[C@@H]1C[C@@H](Oc2cc(-c3ccccc3)nc3cc(OC)ccc23)CN1C(=O)[C@@H](CC(=O)N1CCCCC1)C(C)(C)C)C(=O)NS(=O)(=O)C1CC1 [Compound 149, (2S,4R)-1-((S)-2-tert-butyl-4-oxo-4-(piperidin-1-yl)butanoyl)-N-((1R,2R)-1-(cyclo-propylsulfonyl-carbamoyl)-2-ethylcyclopropyl)-4-(7-methoxy-2-phenylquinolin-4-yloxy)pyrrolidine-2-carboxamide] | < 1000 |

same assay, conditions: Hepatitis C virus, Huh-7

| Compound | EC50 [nM] |
| --- | --- |
| C=CC1CC1(NC(=O)[C@@H]1C[C@@H](Oc2cc(-c3ccccc3)nc3cc(OC)ccc23)CN1C(=O)[C@@H](CC(=O)N1CCc2ccccc2C1)C(C)(C)C)C(=O)NS(=O)(=O)C1CC1 (stereo partly drawn) [Compound 40, (2S,4R)-1-((S)-2-tert-butyl-4-(3,4-dihydro-isoquinolin-2(1H)-yl)-4-oxobutanoyl)-N-(1-(cyclopropyl-sulfonyl-carbamoyl)-2-vinylcyclopropyl)-4-(7-methoxy-2-phenylquinolin-4-yloxy)pyrrolidine-2-carboxamide] | ≤ 10000 |
